{"source": "patent US9187413B2", "about": "“Peripherally restricted FAAH inhibitors” (The Regents of the University of California, priority 2010, dated 2015)", "key": {"[1]": {"test_system": "acetic acid-induced writhing", "assay": "Acetic acid-induced writhing", "assay_type": "in vivo, mice", "protocol": "Behavioral tests. We measured nocifensive responses elicited by i.p. injection of acetic acid in male Swiss and C57B1/6 (wild-type or FAAH-deficient) mice^40, intraplantar injection of carrageenan in male Swiss mice^20, intraplantar injection of formalin in male Sprague-Dawley rats^41, and sciatic nerve ligation in male Swiss mice^39.\nBehavioral tests Acetic acid-induced writhing was measured in Swiss mice or C57B1/6 mice (wild-type and FAAH-deficient), as described^40 with minor modifications. Briefly, the mice were acclimated to the experimental room for 2 h. Each animal was injected with acetic acid (150 μL, 0.6% in saline) and placed into a glass cylinder. Abdominal stretches (extension of body and hind limbs) were counted for 20 min, starting 5 min after acetic acid injection. […] Behavior was scored by an observer blinded to the treatment conditions. Formalin-induced nociception was assessed in Sprague-Dawley rats, as described^41. The rats were singly housed and kept in a shared holding room under a 12:12 h light:dark cycle. […] Immediately after formalin injection, the rats were returned to the observation container and nocifensive behavior was recorded for 60 min with a video camera. Recordings were analyzed by observers blinded to treatment conditions. Nocifensive behavior was measured continuously for 60 min^41. […] Each 5-min bin was analyzed for time spent (1) lifting and (2) licking or biting the injected paw. Nocifensive behavior was analyzed using the composite pain score weighted scores technique (CPS-WST1,2) calculated for the entire time of observation (0-60 min) and, separately, for the first (0-10 min) and second phase (10-60 min) of the behavioral response^46. The area under the curve (AUC) corresponding to CPS-WST1,2 was calculated using the trapezoidal rule. […] Paw volumes were measured using a plethysmometer (Ugo Basile, Milan, Italy). […] Mechanical hyperalgesia was assessed by measuring the latency(s) to withdraw the paw from a constant mechanical pressure exerted onto its dorsal surface. […]"}, "[2]": {"assay": "Tissue distribution of URB937 by LC/MS", "assay_type": "in vivo", "details": "mice, 1 mg-kg^-1, i.p.", "protocol": "Tissue analyses. We performed tissue extractions and liquid chromatography/mass spectrometry analyses of endocannabinoids as described^38. Similar procedures were utilized for the tissue extraction and LC/MS quantification of URB937, as detailed further below.\nTissue extractions Mice were sacrificed with isoflurane and tissues were collected and immediately frozen in liquid nitrogen. Frozen tissues were weighed and homogenized in methanol (1 mL) containing [^2H4]-anandamide, [^2H4]-PEA, [^2H8]-2-AG, and N-cyclohexyl biphenyl-3-ylacetamide as internal standards. Analytes were extracted with chloroform (2 vol) and washed with water (1 vol). Organic phases were collected and dried under nitrogen. The non-fractionated organic extract was used for quantification of URB937. For other analyses the organic extract was fractionated by open-bed silica gel column chromatography, as described^43. Briefly, the extract was dissolved in chloroform and loaded onto small glass columns packed with Silica Gel G (60˜A 230-400 Mesh ASTM; Whatman, Clifton, N.J.). […]\nMobile phase A consisted of methanol containing 0.25% acetic acid, 5 mM ammonium acetate; mobile phase B consisted of water containing 0.25% acetic acid, 5 mM ammonium acetate. […] Na^+ adducts ([M+Na^+]) of analytes and internal standards were monitored in the selective ion-monitoring mode. Limit of quantification was 0.4 pmol."}}}
{"molecule": "NC(=O)c1cccc(-c2cc(OC(=O)NC3CCCCC3)ccc2O)c1", "note": "[Compound 1b, cyclohexylcarbamic acid 3′-carbamoyl-6-hydroxybiphenyl-3-yl ester]", "values": [{"measurement": "nocifensive behavior when administered alone", "setting": "[1]; mice, 1 mg-kg^-1, without acetic acid", "value": "no detectable nocifensive behavior"}, {"measurement": "acetic acid-induced writhing ED50", "setting": "[1]; mice, subcutaneous administration, 1 h before acetic acid", "value": 0.1, "unit": "mg/kg"}, {"measurement": "reduction of acetic acid-induced writhing in FAAH-deficient mice", "setting": "[1]; mutant FAAH-deficient mice, 1 mg-kg^-1", "value": "absent"}, {"measurement": "URB937 level in brain tissue after systemic administration", "setting": "[2]", "value": "undetectable"}]}
